Source: patent publication US10287255B2, “Compounds as histone deacetylase 6 inhibitors and pharmaceutical compositions comprising the same” (CHONG KUN DANG PHARMACEUTICAL CORP., priority 2014, dated 2019)

Columns and labels:
human recombinant HDAC1 = biological target: T1, human recombinant HDAC1 (Homo sapiens, UniProt Q13547); experiment: HDAC1 enzyme activity inhibition assay (in vitro, fluorimetric); format: biochemical; conditions: human recombinant HDAC1, fluorimetric kit, 30° C. 60 minutes
T1 construct: purchased Enzo Life Science BML-SE456
Experimental: (§1) In order to examine the HDAC6 selectivity of the compounds of formula 1 of the present invention by HDAC1 and HDAC6 enzymatic activity inhibition assays, an experiment was performed using a conventional substance as a control.
(§2) HDAC enzyme activity was measured using a HDAC Fluorimetric Drug Discovery Kit (BML-AK511, 516, Enzo Life Science). For the HDAC1 enzyme activity test, human recombinant HDAC1 (BML-SE456) was used as an enzyme source, and Fluor de Lys®-“SIRT1 (BNL-KI177) was used as a substrate. A 5-fold dilution of the compound was seeded into a 96-well plate, and then 0.3 μg of the enzyme and 10 μM of the substrate were added to each well of the plate and allowed to react at 30° C. for 60 minutes. Then, Fluor de Lys® Developer II (BML-KI176) was added thereto and allowed to react for 30 minutes, after which the fluorescence value (Ex 360, Em 460) was measured using a multi-plate reader (Flexstation 3, Molecular Device). The HDAC6 enzyme was tested using human recombinant HDAC6 (382180) (Calbiochem) according to the same protocol as the HDAC1 enzyme activity test method. Based on the resulting values, each IC50 value was calculated using GraphPad Prism4.0 program.

human recombinant HDAC6 = biological target: T2, human recombinant HDAC6 (Homo sapiens, UniProt Q9UBN7); experiment: HDAC6 enzyme activity inhibition assay (in vitro, fluorimetric); format: biochemical; conditions: for HDAC6 selectivity (fold): HDAC6 selectivity over HDAC1; for IC50: human recombinant HDAC6, fluorimetric kit, same protocol as HDAC1
T2 construct: purchased Calbiochem 382180
T2 sequence (Q9UBN7 1-1215): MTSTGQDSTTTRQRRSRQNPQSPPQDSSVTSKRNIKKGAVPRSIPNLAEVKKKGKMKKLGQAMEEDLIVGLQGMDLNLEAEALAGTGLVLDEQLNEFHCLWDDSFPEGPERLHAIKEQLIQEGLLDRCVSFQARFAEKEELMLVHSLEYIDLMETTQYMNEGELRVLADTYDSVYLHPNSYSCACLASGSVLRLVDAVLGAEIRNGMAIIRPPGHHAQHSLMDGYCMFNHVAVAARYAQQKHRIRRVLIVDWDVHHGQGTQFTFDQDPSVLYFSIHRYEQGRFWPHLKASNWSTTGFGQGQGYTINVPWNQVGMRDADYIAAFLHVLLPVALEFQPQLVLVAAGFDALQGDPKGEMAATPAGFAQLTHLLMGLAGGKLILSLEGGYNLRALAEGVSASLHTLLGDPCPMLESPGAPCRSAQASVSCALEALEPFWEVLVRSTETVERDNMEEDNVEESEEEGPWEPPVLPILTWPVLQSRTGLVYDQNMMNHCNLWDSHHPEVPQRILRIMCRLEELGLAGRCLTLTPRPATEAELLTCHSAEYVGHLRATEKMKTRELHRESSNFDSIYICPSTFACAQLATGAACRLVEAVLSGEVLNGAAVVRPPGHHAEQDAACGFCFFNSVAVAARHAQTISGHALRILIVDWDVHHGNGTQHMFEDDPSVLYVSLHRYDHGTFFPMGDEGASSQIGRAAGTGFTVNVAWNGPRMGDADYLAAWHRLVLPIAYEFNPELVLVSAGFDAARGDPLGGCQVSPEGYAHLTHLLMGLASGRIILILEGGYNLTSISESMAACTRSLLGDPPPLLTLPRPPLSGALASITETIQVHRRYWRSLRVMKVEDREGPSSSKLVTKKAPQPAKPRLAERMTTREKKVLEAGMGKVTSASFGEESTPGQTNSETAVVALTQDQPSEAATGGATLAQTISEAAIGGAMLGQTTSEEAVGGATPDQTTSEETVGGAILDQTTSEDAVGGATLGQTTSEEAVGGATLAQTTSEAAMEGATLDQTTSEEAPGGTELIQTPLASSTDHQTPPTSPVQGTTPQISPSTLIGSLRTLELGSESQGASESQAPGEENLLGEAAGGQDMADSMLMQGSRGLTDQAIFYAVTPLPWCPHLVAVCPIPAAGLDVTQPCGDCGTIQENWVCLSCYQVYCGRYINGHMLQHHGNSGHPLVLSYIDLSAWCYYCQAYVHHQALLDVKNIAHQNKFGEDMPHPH
Experimental: as §1, §2

T1 sequence (Q13547 whole entry): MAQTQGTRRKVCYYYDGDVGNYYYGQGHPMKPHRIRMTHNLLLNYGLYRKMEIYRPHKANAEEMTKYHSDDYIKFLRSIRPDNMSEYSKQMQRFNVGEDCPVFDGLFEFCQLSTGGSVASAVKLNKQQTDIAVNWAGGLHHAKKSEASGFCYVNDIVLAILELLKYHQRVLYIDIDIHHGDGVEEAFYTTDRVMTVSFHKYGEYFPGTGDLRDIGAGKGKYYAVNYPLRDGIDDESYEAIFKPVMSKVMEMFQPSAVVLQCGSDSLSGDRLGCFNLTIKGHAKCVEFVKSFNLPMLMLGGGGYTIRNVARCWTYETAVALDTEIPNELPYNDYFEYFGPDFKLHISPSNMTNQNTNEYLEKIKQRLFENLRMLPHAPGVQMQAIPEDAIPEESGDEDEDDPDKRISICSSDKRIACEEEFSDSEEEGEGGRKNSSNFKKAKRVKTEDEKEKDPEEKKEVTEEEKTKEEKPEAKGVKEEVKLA

Compound | IC50 (human recombinant HDAC1) | HDAC6 selectivity (fold) (human recombinant HDAC6) | IC50 (human recombinant HDAC6)
C[C@@H]1CN(C(=O)Nc2ccccc2)C[C@H](C)N1Cc1ccc(C(=O)NO)cc1 [Compound 162, (3R,5S)-4-(4-(hydroxycarbamoyl)benzyl)-3,5-dimethyl-N-phenylpiperazine-1-carboxamide] | 400 nM | 5 fold | 79 nM
COc1cccc(NC(=O)N2C[C@@H](C)N(Cc3ccc(C(=O)NO)cc3)[C@@H](C)C2)c1 [Compound 164, (3R,5S)-4-(4-(hydroxycarbamoyl)benzyl)-N-(3-methoxyphenyl)-3,5-dimethylpiperazine-1-carboxamide] | 500 nM | 4 fold | 135 nM
COc1ccc(NC(=O)N2C[C@@H](C)N(Cc3ccc(C(=O)NO)cc3)[C@@H](C)C2)cc1 [Compound 165, (3R,5S)-4-(4-(hydroxycarbamoyl)benzyl)-N-(4-methoxyphenyl)-3,5-dimethylpiperazine-1-carboxamide] | 1400 nM | 2 fold | 560 nM
Cc1ccccc1NC(=O)N1C[C@@H](C)N(Cc2ccc(C(=O)NO)cc2)[C@@H](C)C1 [Compound 166, (3R,5S)-4-(4-(hydroxycarbamoyl)benzyl)-3,5-dimethyl-N-o-tolylpiperazine-1-carboxamide] | 4300 nM | 10 fold | 452 nM
Cc1cccc(NC(=O)N2C[C@@H](C)N(Cc3ccc(C(=O)NO)cc3)[C@@H](C)C2)c1 [Compound 167, (3R,5S)-4-(4-(hydroxycarbamoyl)benzyl)-3,5-dimethyl-N-m-tolylpiperazine-1-carboxamide] | 800 nM | 10 fold | 77 nM
C[C@@H]1CN(Cc2ccc(C(=O)NO)cc2)C[C@H](C)N1C(=O)Oc1ccccc1 [Compound 177, phenyl(2S,6R)-4-(4-(hydroxycarbamoyl)benzyl)-2,6-dimethylpiperazine-1-carboxylate] | 5800 nM | 186 fold | 31 nM
C[C@@H]1CN(CCc2ccccc2)C[C@H](C)N1Cc1ccc(C(=O)NO)cc1 [Compound 183, 4-(((2S,6R)-2,6-dimethyl-4-phenethylpiperazin-1-yl)methyl)-N-hydroxybenzamide] | > 10000 nM | >20 fold | 500 nM
C[C@@H]1CN(C(=O)Nc2cccc(-n3cccc3)c2)C[C@H](C)N1Cc1ccc(C(=O)NO)cc1 [Compound 186, (3R,5S)-N-(3-(1 H-pyrrol-1-yl)phenyl)-4-(4-(hydroxycarbamoyl)benzyl)-3,5-dimethylpiperazine-1-carboxamide] | 300 nM | 65 fold | 5 nM
Cc1cccc(NC(=S)N2C[C@@H](C)N(Cc3ccc(C(=O)NO)cc3)[C@@H](C)C2)c1 [Compound 189, 4-(((2S,6R)-2,6-dimethyl-4-(m-tolylcarbamothioyl)piperazin-1-yl)methyl)-N-hydroxybenzamide] | 3000 nM | 10 fold | 303 nM
C[C@@H]1CN(CC(C)(C)F)C[C@H](C)N1Cc1ccc(C(=O)NO)cc1 [Compound 193, 4-(((2S,6R)-4-(2-fluoro-2-methylpropyl)-2,6-dimethylpiperazin-1-yl)methyl)-N-hydroxybenzamide] | 16300 nM | 60 fold | 271 nM
C[C@@H]1CN(Cc2ccc(C(=O)NO)cn2)C[C@H](C)N1Cc1ccccc1 [Compound 194, 6-(((3R,5S)-4-benzyl-3,5-dimethylpiperazin-1-yl)methyl)-N-hydroxynicotinamide] | 24800 nM | 303 fold | 82 nM
C[C@@H]1CN(C(=O)N(C)c2ccccc2)C[C@H](C)N1Cc1ccc(C(=O)NO)cc1 [Compound 196, (3R,5S)-4-(4-(hydroxycarbamoyl)benzyl)-N,3,5-trimethyl-N-phenylpiperazine-1-carboxamide] | 14400 nM | 97 fold | 148 nM

Results, then the molecule that gave them:

IC50 (human recombinant HDAC1) | HDAC6 selectivity (fold) (human recombinant HDAC6) | IC50 (human recombinant HDAC6) | Compound
1100 nM | 2 fold | 497 nM | COc1ccccc1NC(=O)N1C[C@@H](C)N(Cc2ccc(C(=O)NO)cc2)[C@@H](C)C1 [Compound 163, (3R,5S)-4-(4-(hydroxycarbamoyl)benzyl)-N-(2-methoxyphenyl)-3,5-dimethylpiperazine-1-carboxamide]
2200 nM | 7 fold | 316 nM | C[C@@H]1CN(C(=O)NCc2ccccc2)C[C@H](C)N1Cc1ccc(C(=O)NO)cc1 [Compound 168, (3R,5S)-N-benzyl-4-(4-(hydroxycarbamoyl)benzyl)-3,5-dimethylpiperazine-1-carboxamide]
1300 nM | 35 fold | 38 nM | C[C@@H]1CN(Cc2ccc(/C=C/C(=O)NO)cc2)C[C@H](C)N1Cc1ccccc1 [Compound 172, (E)-3-(4-(((3R,5S)-4-benzyl-3,5-dimethylpiperazin-1-yl)methyl)phenyl)-N-hydroxyacrylamide]
7200 nM | 85 fold | 85 nM | C[C@@H]1CN(Cc2ccc(CC(=O)NO)cc2)C[C@H](C)N1Cc1ccccc1 [Compound 173, 2-(4-(((3R,5S)-4-benzyl-3,5-dimethylpiperazin-1-yl)methyl)phenyl)-N-hydroxyacetamide]
> 10000 nM | >103 fold | 97 nM | C[C@@H]1CN(Cc2ccccc2)C[C@H](C)N1Cc1ccc(C(=O)NO)c(F)c1 [Compound 174, 4-(((2S,6R)-4-benzyl-2,6-dimethylpiperazin-1-yl)methyl)-2-fluoro-N-hydroxybenzamide]
6100 nM | 90 fold | 68 nM | C[C@@H]1CN(Cc2ccccc2)C[C@H](C)N1Cc1ccc(/C=C/C(=O)NO)cc1 [Compound 175, (E)-3-(4-(((2S,6R)-4-benzyl-2,6-dimethylpiperazin-1-yl)methyl)phenyl)-N-hydroxyacrylamide]
800 nM | 3 fold | 249 nM | C[C@@H]1CN(C(=O)Nc2ccc3c(ccn3C)c2)C[C@H](C)N1Cc1ccc(C(=O)NO)cc1 [Compound 185, (3R,5S)-4-(4-(hydroxycarbamoyl)benzyl)-3,5-dimethyl-N-(1-methyl-1 H -indol-5-yl)piperazine-1-carboxamide]
1100 nM | 5 fold | 239 nM | C[C@@H]1CN(C(=O)Nc2ccc3c(c2)CCO3)C[C@H](C)N1Cc1ccc(C(=O)NO)cc1 [Compound 187, (3R,5S)-N-(2,3-dihydrobenzofuran-5-yl)-4-(4-(hydroxycarbamoyl)benzyl)-3,5-dimethylpiperazine-1-carboxamide]
13600 nM | 71 fold | 191 nM | C[C@@H]1CN(Cc2ccc(C(=O)NO)cc2)C[C@H](C)N1C(=O)CCc1ccccc1 [Compound 188, 4-(((3R,5S)-3,5-dimethyl-4-(3-phenylpropanoyl)piperazin-1-yl)methyl)-N-hydroxybenzamide]
22400 nM | 55 fold | 410 nM | C[C@@H]1CN(Cc2ccccc2)C[C@H](C)N1Cc1ccc(C(=O)NO)cn1 [Compound 195, 6-(((2S,6R)-4-benzyl-2,6-dimethylpiperazin-1-yl)methyl)-N-hydroxynicotinamide]
